Measurements taken from patent US12419305B2, “Antimicrobial compositions” (Firmenich SA, priority 2018, dated 2025).

Tests used:
[1] = test system: Pseudomonas aeruginosa ATCC 15442; assay: BCT test (bacterial contact time), 60 s, log reduction / effect fraction; CI by Compusyn; assay type: cell-based; details: BCT 60 s, in 25% EtOH
Experimental: (§1) E. coli, S. aureus, P. aeruginosa, and S. enterica: Separate suspensions of the E. coli ATCC 10536 strain, S. aureus ATCC 6538 strain, Pseudomonas aeruginosa ATCC 15442 strain, and the Salmonella enterica ATCC 10708 strain were prepared as follows: Stock cultures (stored at −80° C.) were thawed and sub-cultured onto Tryptic Soy Agar (TSA) agar plate media, and incubated at 37° C. for 24 h to obtain single colonies. Single colonies of the primary cultures were streaked onto TSA plates and incubated at 37° for 24 h to generate secondary cultures. Single colonies of secondary cultures picked and used to inoculate into 50 mL of TSB broth. The inoculated TSB broth was incubated at 37° C. at 180 rpm for 18 h. Aliquots (0.5 ml) of the 18 h culture were inoculated into 50 ml of fresh TSB broth, and incubated at 37° C. at 180 rpm for 2-3 hours. When the OD600 nm value of the broth reached 1-2, cells were harvested by centrifugation at 5000 rpm for 10 min, and then resuspended in fresh TSB broth at a concentration of 1-5×10^8 CFU/mL. These suspensions were used as the bacterial suspensions for the BCT test.
(§2) BCT Test: Test compositions at a range of concentrations (either combinations of more than one perfume ingredient, and comparative compositions comprising the single perfume ingredients) were prepared in ethanol. Five replicates of each test composition were added into 96-well microtiter plates (120 μl per well), with row B containing control compositions containing the ethanol solution alone. 120 μl of bacterial cell suspensions at a concentration of approximately 1×10^8 bacteria per mL (as prepared above) were added to each well of the microtiter plate. The bacterial suspensions were incubated with the test solutions for 45, 60, or 120 seconds. Following the incubation of the bacterial suspensions with the test solutions, serial dilutions of the bacterial suspensions were generated (three serial 1:10 dilutions, followed by 17 serial 1:2 dilutions), in multiwell microtiter plates.
(§3) Each plate was sealed and incubated at 37° C. under agitation (180 rpm). After incubation, the turbidity of the wells (OD600 nm) was determined using a Tecan microplate reader. Turbid wells were regarded as positive growth, due to the presence of viable cells. The total number of viable cells (log CFU) for each sample was calculated. And the log reduction for each test composition at the final concentration (dose) was calculated against the control sample of the ethanol solution.
(§4) Determination of Synergy via the Combination Index (CI): The CI was calculated using Compusyn software (ComboSyn, Inc., as created by Dr. Dorothy Chou in 2005), according to the manufacturer's instructions. The concentration of each test composition (combinations of more than one perfume ingredient, and comparative compositions comprising the single perfume ingredients used to generate the combination) and their corresponding effect fraction was entered, and the corresponding CI calculated.
(§5) When the calculated CI values were less than 0.9, the combination of perfume ingredients was regarded as having synergistic effect. When the calculated CI was between 1.0 a 0.9, the combination of perfume ingredients was regarded as having an additive effect. When the calculated CI was greater than 1.0, the combination of perfume ingredients was regarded as having an antagonistic effect.

[2] = test system: E. coli ATCC 10536; assay: BCT test (bacterial contact time), 45 s, log reduction / effect fraction; CI by Compusyn; assay type: cell-based, Escherichia coli; details: 45 s, in 20% EtOH
Experimental: as §1, §2, §3, §4, §5

[3] = test system: S. aureus ATCC 6538; assay: BCT test (bacterial contact time), 60 s, log reduction / effect fraction; CI by Compusyn; assay type: cell-based, Staphylococcus aureus; details: Staphylococcus aureus, ATCC6538, 1 min, 60 s, in 25% EtOH
Experimental: as §1, §2, §3, §4, §5

For `O=Cc1ccc2c(c1)OCO2` [Heliotropine, 1,3-benzodioxole-5-carbaldehyde], the Log reduction ([1]; Dose 0.2 % w/v) was 0.00, the log reduction at 0.2 % strength ([1]; Pseudomonas aeruginosa, ATCC15442, 1 min, Dose 0.2 % w/v) was 0 and the log reduction at 0.3 % strength ([1]; Pseudomonas aeruginosa, ATCC15442, 1 min, Dose 0.3 % w/v) was 0.6. The log reduction at 0.4 % strength ([1]; Pseudomonas aeruginosa, ATCC15442, 1 min, Dose 0.4 % w/v) was 3.4, the log reduction at 0.45 % strength ([1]; Pseudomonas aeruginosa, ATCC15442, 1 min, Dose 0.45 % w/v) was 4.1 and the log reduction at 0.55 % strength ([1]; Pseudomonas aeruginosa, ATCC15442, 1 min, Dose 0.55 % w/v) was 7.6. The log reduction at 0.45 % strength ([2]; Escherichia coli, ATCC10536, 45 s, dose 0.450 % w/v) was 0.1, the log reduction at 0.55 % strength ([2]; Escherichia coli, ATCC10536, 45 s, dose 0.550 % w/v) was 5.3 and the log reduction at 0.6 % strength ([2]; Escherichia coli, ATCC10536, 45 s, dose 0.600 % w/v) was 7.3. It also gave a Log reduction ([2]; dose 0.450 % w/v) of 0.1, a log reduction at 0.5 % strength ([3]; dose 0.500 % w/v) of 0.7 and a log reduction at 0.6 % strength ([3]; dose 0.600 % w/v) of 2.7. The log reduction at 0.7 % strength ([3]; dose 0.700 % w/v) was 6.1, the log reduction at 0.75 % strength ([3]; dose 0.750 % w/v) was 7.1 and the log reduction at 1 % strength ([3]; dose 1.000 % w/v) was 7.1.
